Test results taken from PMC7108740, “Exploring the molecular structures that confer ligand selectivity for galanin type II and III receptors” (PLoS ONE, 2020).
Ends that are not written are not given here.

What was measured:
[1] = target: T1, GALR3 double mutant L^100F, Y^103F (Homo sapiens, UniProt O60755, L100F/Y103F); experiment: SRE-luc luciferase assay, GALR3 L100F,Y103F; type: cell-based; conditions: GALR3 L^100F, SRE-luc in HEK293 Gqi cells, ligand 6 h, mean ± S.E., SEM
T1 construct: expressed in transfected cells; host or cells: HEK293 cells stably expressing Gqi
T1 sequence (O60755 1-368 L100F/Y103F): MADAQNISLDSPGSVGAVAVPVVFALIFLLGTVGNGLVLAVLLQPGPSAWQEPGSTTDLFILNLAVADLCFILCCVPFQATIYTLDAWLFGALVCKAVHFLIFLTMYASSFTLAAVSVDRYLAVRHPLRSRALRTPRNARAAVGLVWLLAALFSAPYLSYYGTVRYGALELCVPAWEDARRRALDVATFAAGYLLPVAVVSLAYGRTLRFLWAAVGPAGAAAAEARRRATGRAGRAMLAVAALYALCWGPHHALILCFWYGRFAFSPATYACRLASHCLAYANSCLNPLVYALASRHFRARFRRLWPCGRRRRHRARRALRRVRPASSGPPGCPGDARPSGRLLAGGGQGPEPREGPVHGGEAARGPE
Source text: For domain swapping between GALR2 and GALR3, individual cDNA fragments of interest were amplified by polymerase chain reaction (PCR) with Pfu polymerase (ELPIS Biotech, Daejeon, Korea) and two specific primers, one corresponding to the 5' or 3' end of the GALR2 or GALR3 cDNA and the other to the region of overlap between the two receptors. The two resulting fragments, one from GALR2 and the other from GALR3, were subjected to a second round of PCR to generate the chimeric cDNAs. To construct single, double-, triple-, pentuple-, hextuple-, and septuple-mutant receptors, amino acids of GALR3 were substituted for the amino acids at the corresponding positions in GALR2 using PCR-based site-directed mutagenesis. All of the chimeric constructs were cloned into the pcDNA3 expression vector at HindⅢ and XbaⅠ sites. The DNA sequences of the chimeras were verified by automatic sequencing. HEK293 cells stably expressing the Gqi construct, which allows induction of Gq-dependent signaling pathways upon activation of a Gi-coupled receptor [14, 30], were maintained in Dulbecco's Modified Eagle's Medium (DMEM) in the presence of 10% fetal bovine serum and 1% penicillin and streptomycin. For all transfections, 200 ng DNA (100 ng receptor and 100 ng SRE-luc) mixed with lipofectamine 2000 was applied to 60–80% confluent cells on a multi-well plate according to the manufacturer's instructions (Invitrogen, Carlsbad, CA). For luciferase assays, HEK293 Gqi cells were seeded on 48-well plates at a density of 2.5 × 10^4 cells/well one day before transfection. […] The luciferase activity in 50 μl cell extract was determined using a luciferase assay system according to the standard protocol for the Synergy 2 Multi-Mode Microplate Reader (BioTek, Winooski, VT, USA). […] The concentrations of agonists that induced half-maximal stimulation (EC50) were calculated using the GraphPad PRISM5 software (GraphPad software, Inc., San Diego, CA). […]

human GALR2 = target: T2, human GALR2 (Homo sapiens, UniProt O43603); experiment: SRE-luc luciferase assay, WT GALR2; type: cell-based; conditions: SRE-luc in HEK293 Gqi cells, ligand 6 h, mean ± SE, at least three independent experiments, SEM
T2 construct: host or cells: HEK293 cells stably expressing Gqi
T2 sequence (O43603 1-387): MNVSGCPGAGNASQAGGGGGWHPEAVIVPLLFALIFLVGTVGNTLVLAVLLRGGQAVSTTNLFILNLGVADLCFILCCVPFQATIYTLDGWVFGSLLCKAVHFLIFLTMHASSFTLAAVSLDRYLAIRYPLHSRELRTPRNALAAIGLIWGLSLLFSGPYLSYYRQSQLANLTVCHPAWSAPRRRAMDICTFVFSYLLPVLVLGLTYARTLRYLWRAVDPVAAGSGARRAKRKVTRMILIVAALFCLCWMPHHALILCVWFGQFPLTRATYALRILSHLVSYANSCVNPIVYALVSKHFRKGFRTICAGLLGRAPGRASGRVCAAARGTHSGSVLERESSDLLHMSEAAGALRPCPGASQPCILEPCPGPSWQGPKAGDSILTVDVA
Source text: The pcDNA3.1 vector was purchased from Invitrogen (San Diego, CA, USA). The serum response element (SRE)-luciferase (SRE-luc) vector containing a single copy of the SRE (CCATATTAGG) conjugated with luciferase was purchased from Stratagene (La Jolla, CA, USA). The cDNAs for human GALR1, GALR2, and GALR3 were obtained from BRN SCIENCE, Inc. The cDNAs were inserted into the EcoRⅠ and XhoⅠ sites of pcDNA3.1.
HEK293 cells stably expressing the Gqi construct, which allows induction of Gq-dependent signaling pathways upon activation of a Gi-coupled receptor [14, 30], were maintained in Dulbecco's Modified Eagle's Medium (DMEM) in the presence of 10% fetal bovine serum and 1% penicillin and streptomycin. For all transfections, 200 ng DNA (100 ng receptor and 100 ng SRE-luc) mixed with lipofectamine 2000 was applied to 60–80% confluent cells on a multi-well plate according to the manufacturer's instructions (Invitrogen, Carlsbad, CA).
For luciferase assays, HEK293 Gqi cells were seeded on 48-well plates at a density of 2.5 × 10^4 cells/well one day before transfection. A mixture including 100 ng SRE-luc reporter construct, 100 ng expression plasmid, and lipofectamine 2000 reagent in diluted Opti-MEM (Gibco) was incubated at room temperature for 20 min and then added into each well according to the manufacturer's instructions (Invitrogen, CA, USA). Before exposure to the ligands, the cells were maintained in serum-free DMEM for 16–18 h. Approximately 48 h after transfection, the cells were treated with ligand for 6 h. The cells were then lysed by the addition of 100 μl lysis buffer. The luciferase activity in 50 μl cell extract was determined using a luciferase assay system according to the standard protocol for the Synergy 2 Multi-Mode Microplate Reader (BioTek, Winooski, VT, USA).
Data analysis was performed by non-linear regression with a sigmoidal dose-response curve. The concentrations of agonists that induced half-maximal stimulation (EC50) were calculated using the GraphPad PRISM5 software (GraphPad software, Inc., San Diego, CA). All data are presented as the mean ± standard error (SE) of at least three independent experiments.

EC50 [1] [nM] | EC50 (human GALR2) [nM] | Compound
42.7 ± 9.54 |  | CSCC[C@H](NC(=O)[C@H](C)NC(=O)[C@H](CCC(N)=O)NC(=O)[C@@H]1CCCN1C(=O)[C@@H](NC(=O)[C@H](Cc1c[nH]c2ccccc12)NC(=O)[C@@H](N)CC(N)=O)[C@@H](C)O)C(=O)N[C@@H](CC(C)C)C(=O)N[C@@H](Cc1ccc(O)cc1)C(=O)N[C@@H](CC(C)C)C(=O)N[C@@H](CCCCN)C(=O)NCC(=O)N[C@@H](C)C(=O)N[C@@H](CCC(N)=O)C(N)=O [SPX, reference compound]
174 ± 45 | 87.7 ± 10.6 | NWTPNAMLYLKGAQ-NH2 [N^5-SPX]
155 ± 45.2 | 40.7 ± 13.2 | NWTPQAALYLKGAQ-NH2 [A^7-SPX]
 | 33.1 ± 6.19 | NWTPQAMLYLKGPQ-NH2 [P^13-SPX]
